Literature values, collected in PubChem BioAssay AID1259409 (Chemical Carcinogenesis Research Information System (CCRIS), 2018).
Values joined by “and” are separate entries in the source; they are usually repeats but may differ in a detail not shown here. Equal values may be shown once.

Test system: rodent chemically induced tumor inhibition, incidence and multiplicity
Experiment: CCRIS tumor inhibitor studies

For `Cc1[nH]cnc1CSCCN=C(NC#N)N(C)N=O`, the “tumour outcome (control, treated, inhibition, significance)” value (Carcinogen: 7,12-DIMETHYLBENZ[A]ANTHRACENE, 57-97-6, Dose [Inhibitor]: 1 G/L IN DRINKING WATER AD LIBITUM BEGINNING 1 WK POST PROMOTER DOSE FOR DURATION OF STUDY (STUDY DURATION: 52 WK), Route [Inhibitor]: ORAL, Species: MOUSE, Strain/Sex: SENCAR/FEMALE, Target Tissue: Type of Lesion: SKIN: CARCINOMA, Dose [Carcinogen]: 120 UG IN 0.2 ML ACETONE ONCE, Promoter: 12-O-TETRADECANOYLPHORBOL-13-ACETATE, 16561-29-8) is listed as 24/30 (80%), 18/25 (72%), 10%, not calculated, the “tumour outcome (control, treated, inhibition, significance)” value (Carcinogen: 7,12-DIMETHYLBENZ[A]ANTHRACENE, 57-97-6, Dose [Inhibitor]: 1 G/L IN DRINKING WATER AD LIBITUM BEGINNING 1 WK POST PROMOTER DOSE FOR DURATION OF STUDY (STUDY DURATION: 52 WK), Route [Inhibitor]: ORAL, Species: MOUSE, Strain/Sex: SENCAR/FEMALE, Target Tissue: Type of Lesion: SKIN: KERATOACANTHOMA, Dose [Carcinogen]: 120 UG IN 0.2 ML ACETONE ONCE, Promoter: 12-O-TETRADECANOYLPHORBOL-13-ACETATE, 16561-29-8) is listed as 16/30 (53%), 8/25 (32%), 40%, p<0.05 and the “tumour outcome (control, treated, inhibition, significance)” value (Carcinogen: 7,12-DIMETHYLBENZ[A]ANTHRACENE, 57-97-6, Dose [Inhibitor]: 1 MG/WK BEGINNING 1 WK POST FIRST PROMOTER DOSE FOR DURATION OF STUDY (STUDY DURATION: 52 WK), Route [Inhibitor]: DERMAL, Species: MOUSE, Strain/Sex: SENCAR/FEMALE, Target Tissue: Type of Lesion: SKIN: CARCINOMA, Dose [Carcinogen]: 120 UG IN 0.2 ML ACETONE ONCE, Promoter: 12-O-TETRADECANOYLPHORBOL-13-ACETATE, 16561-29-8) is listed as 24/30 (80%), 23/30 (77%), 4%, not calculated. The “tumour outcome (control, treated, inhibition, significance)” value (Carcinogen: 7,12-DIMETHYLBENZ[A]ANTHRACENE, 57-97-6, Dose [Inhibitor]: 1 MG/WK BEGINNING 1 WK POST FIRST PROMOTER DOSE FOR DURATION OF STUDY (STUDY DURATION: 52 WK), Route [Inhibitor]: DERMAL, Species: MOUSE, Strain/Sex: SENCAR/FEMALE, Target Tissue: Type of Lesion: SKIN: KERATOACANTHOMA, Dose [Carcinogen]: 120 UG IN 0.2 ML ACETONE ONCE, Promoter: 12-O-TETRADECANOYLPHORBOL-13-ACETATE, 16561-29-8) was 16/30 (53%), 15/30 (50%), 6%, not calculated, the “tumour outcome (control, treated, inhibition, significance)” value (Carcinogen: 7,12-DIMETHYLBENZ[A]ANTHRACENE, 57-97-6, Dose [Inhibitor]: 1130 PPM IN DRINKING WATER BEGINNING 1 WK POST LAST CARCINOGEN DOSE (STUDY DURATION: 14 MO), Route [Inhibitor]: ORAL, Species: MOUSE, Strain/Sex: B6D2F1/FEMALE, Target Tissue: Type of Lesion: LUNG: TUMOR, Dose [Carcinogen]: 1 MG IN OLIVE OIL 1/WK FOR 4 WK, Promoter: NONE USED) was 11/27 (41%), 13/23 (56%), -37%, not calculated and the “tumour outcome (control, treated, inhibition, significance)” value (Carcinogen: 7,12-DIMETHYLBENZ[A]ANTHRACENE, 57-97-6, Dose [Inhibitor]: 1130 PPM IN DRINKING WATER BEGINNING 1 WK POST LAST CARCINOGEN DOSE (STUDY DURATION: 14 MO), Route [Inhibitor]: ORAL, Species: MOUSE, Strain/Sex: B6D2F1/FEMALE, Target Tissue: Type of Lesion: LYMPHOID TISSUE: NEOPLASMS, Dose [Carcinogen]: 1 MG IN OLIVE OIL 1/WK FOR 4 WK, Promoter: NONE USE) was 12/29 (41%), 12/28 (43%), -4%, not calculated. For the same compound, the “tumour outcome (control, treated, inhibition, significance)” value (Carcinogen: 7,12-DIMETHYLBENZ[A]ANTHRACENE, 57-97-6, Dose [Inhibitor]: 1130 PPM IN DRINKING WATER BEGINNING 1 WK POST LAST CARCINOGEN DOSE (STUDY DURATION: 14 MO), Route [Inhibitor]: ORAL, Species: MOUSE, Strain/Sex: B6D2F1/FEMALE, Target Tissue: Type of Lesion: MAMMARY GLAND: TUMOR, Dose [Carcinogen]: 1 MG IN OLIVE OIL 1/WK FOR 4 WK, Promoter: NONE USED) was 7/29 (24%), 7/28 (25%), -4%, not calculated, the “tumour outcome (control, treated, inhibition, significance)” value (Carcinogen: URETHANE, 51-79-6, Dose [Inhibitor]: 1000 PPM IN DRINKING WATER BEGINNING 10 WK POST LAST CARCINOGEN DOSE (STUDY DURATION: 14 MO), Route [Inhibitor]: ORAL, Species: MOUSE, Strain/Sex: BALB/MALE, Target Tissue: Type of Lesion: LUNG: TUMOR, Dose [Carcinogen]: 1 G/KG 1/WK FOR 2 WK, Promoter: NONE USED) was 20/20 (100%), 17/17 (100%), 0%, not calculated and the “tumour outcome (control, treated, inhibition, significance)” value (Carcinogen: URETHANE, 51-79-6, Dose [Inhibitor]: 1800 PPM IN DRINKING WATER BEGINNING 10 WK POST LAST CARCINOGEN DOSE (STUDY DURATION: 14 MO), Route [Inhibitor]: ORAL, Species: MOUSE, Strain/Sex: BALB/MALE, Target Tissue: Type of Lesion: LUNG: TUMOR, Dose [Carcinogen]: 1 G/KG 1/WK FOR 2 WK, Promoter: NONE USED) was 20/20 (100%), 17/17 (100%), 0%, not calculated.
For `O=c1c2ccccc2[se]n1-c1ccccc1`, the “tumour outcome (control, treated, inhibition, significance)” value (Carcinogen: 17BETA-ESTRADIOL, 50-28-2, Dose [Inhibitor]: 0, 0.2% IN DIET BEGINNING 5 D POST CARCINOGEN DOSE (STUDY DURATION: 7.5 MO), Route [Inhibitor]: ORAL, Species: HAMSTER, Strain/Sex: SYRIAN/MALE, Target Tissue: Type of Lesion: KIDNEY: TUMOR, Dose [Carcinogen]: 25 MG PELLET REPLACED WITH A SECOND PELLET AFTER 4 MO, Promoter: NONE USED) is listed as 13/13 (100%), 8/11 (73%), 27%, p<0.05.
For `O=c1c(O)c(-c2ccc(O)cc2O)oc2cc(O)cc(O)c12`, the “tumour outcome (control, treated, inhibition, significance)” value (Carcinogen: 4-NITROQUINOLINE-1-OXIDE [56-57-5], Dose [Inhibitor]: 100 PPM IN DIET FOR 10 WK BEGINNING 1 WK PRIOR TO FIRST CARCINOGEN DOSE (STUDY DURATION: 32 WK), Route [Inhibitor]: ORAL, Species: RAT, Strain/Sex: F344/MALE, Target Tissue: Type of Lesion: TONGUE: SQUAMOUS CELL PAPILLOMA, Dose [Carcinogen]: 20 PPM FOR 8 WK IN DRINKING WATER (STUDY DURATION: 32 WK), Promoter: NONE) is given as 9/25 (36%), 3/19 (16%), 56%, not significant and 14/25 (56%), 1/19 (5%), 91%, p=0.0004, the “tumour outcome (control, treated, inhibition, significance)” value (Carcinogen: 4-NITROQUINOLINE-1-OXIDE [56-57-5], Dose [Inhibitor]: 100 PPM IN DIET FOR 22 WK BEGINNING 1 WK POST LAST CARCINOGEN DOSE (STUDY DURATION: 31 WK), Route [Inhibitor]: ORAL, Species: RAT, Strain/Sex: F344/MALE, Target Tissue: Type of Lesion: TONGUE: SQUAMOUS CELL PAPILLOMA, Dose [Carcinogen]: 20 PPM FOR 8 WK IN DRINKING WATER (STUDY DURATION: 32 WK), Promoter: NONE) is given as 9/25 (36%), 0/20 (0%), 100%, p=0.003 and 14/25 (56%), 1/20 (5%), 91%, p=0.0003 and the “tumour outcome (control, treated, inhibition, significance)” value (Carcinogen: 4-NITROQUINOLINE-1-OXIDE [56-57-5], Dose [Inhibitor]: 500 PPM IN DIET FOR 10 WK BEGINNING 1 WK PRIOR TO FIRST CARCINOGEN DOSE (STUDY DURATION: 32 WK), Route [Inhibitor]: ORAL, Species: RAT, Strain/Sex: F344/MALE, Target Tissue: Type of Lesion: TONGUE: SQUAMOUS CELL PAPILLOMA, Dose [Carcinogen]: 20 PPM FOR 8 WK IN DRINKING WATER (STUDY DURATION: 32 WK), Promoter: NONE) is given as 9/25 (36%), 2/20 (10%), 72%, p=0.045 and 14/25 (56%), 0/20 (0%), 100%, p=0.00003. The “tumour outcome (control, treated, inhibition, significance)” value (Carcinogen: 4-NITROQUINOLINE-1-OXIDE [56-57-5], Dose [Inhibitor]: 500 PPM IN DIET FOR 22 WK BEGINNING 1 WK POST LAST CARCINOGEN DOSE (STUDY DURATION: 31 WK), Route [Inhibitor]: ORAL, Species: RAT, Strain/Sex: F344/MALE, Target Tissue: Type of Lesion: TONGUE: SQUAMOUS CELL PAPILLOMA, Dose [Carcinogen]: 20 PPM FOR 8 WK IN DRINKING WATER (STUDY DURATION: 32 WK), Promoter: NONE) was 14/25 (56%), 1/20 (5%), 91%, p=0.0003.
For `CN(C)CCOC(c1ccccc1)c1ccccc1`, the “tumour outcome (control, treated, inhibition, significance)” value (Carcinogen: 7,12-DIMETHYLBENZ[A]ANTHRACENE, 57-97-6, Dose [Inhibitor]: 0, 0.086 UMOL 2/WK BEGINNING 1 WK POST CARCINOGEN DOSE AND CONTINUING FOR DURATION OF STUDY (STUDY DURATION: 15 WK), Route [Inhibitor]: DERMAL, Species: MOUSE, Strain/Sex: SENCAR/FEMALE, Target Tissue: Type of Lesion: SKIN: PAPILLOMA, Dose [Carcinogen]: 10 NMOL ONCE, Promoter: 12-O-TETRADECANOYLPHORBOL-13-ACETATE, 16561-29-8) is listed as 97%, 75%, 23%, not calculated, the “tumour outcome (control, treated, inhibition, significance)” value (Carcinogen: 7,12-DIMETHYLBENZ[A]ANTHRACENE, 57-97-6, Dose [Inhibitor]: 0, 0.342 UMOL 2/WK BEGINNING 1 WK POST CARCINOGEN DOSE AND CONTINUING FOR DURATION OF STUDY (STUDY DURATION: 15 WK), Route [Inhibitor]: DERMAL, Species: MOUSE, Strain/Sex: SENCAR/FEMALE, Target Tissue: Type of Lesion: SKIN: PAPILLOMA, Dose [Carcinogen]: 10 NMOL ONCE, Promoter: 12-O-TETRADECANOYLPHORBOL-13-ACETATE, 16561-29-8) is listed as 97%, 80%, 18%, not calculated and the “tumour outcome (control, treated, inhibition, significance)” value (Carcinogen: 7,12-DIMETHYLBENZ[A]ANTHRACENE, 57-97-6, Dose [Inhibitor]: 0, 0.856 UMOL 2/WK BEGINNING 1 WK POST CARCINOGEN DOSE AND CONTINUING FOR DURATION OF STUDY (STUDY DURATION: 15 WK), Route [Inhibitor]: DERMAL, Species: MOUSE, Strain/Sex: SENCAR/FEMALE, Target Tissue: Type of Lesion: SKIN: PAPILLOMA, Dose [Carcinogen]: 10 NMOL ONCE, Promoter: 12-O-TETRADECANOYLPHORBOL-13-ACETATE, 16561-29-8) is listed as 97%, 75%, 23%, not calculated. For the same compound, the “tumour outcome (control, treated, inhibition, significance)” value (Carcinogen: 7,12-DIMETHYLBENZ[A]ANTHRACENE, 57-97-6, Dose [Inhibitor]: 0, 10 MG A WK IN DRINKING WATER BEGINNING 1 WK POST CARCINOGEN DOSE AND CONTINUING FOR DURATION OF STUDY (STUDY DURATION, Route [Inhibitor]: ORAL, Species: MOUSE, Strain/Sex: SENCAR/MALE, Target Tissue: Type of Lesion: SKIN: PAPILLOMA, Dose [Carcinogen]: 100 NMOL IN 200 µL ACETONE ONCE, Promoter: 12-O-TETRADECANOYLPHORBOL-13-ACETATE, 16561-29-8) was 95%, 98%, -3%, not calculated.
